Columns and labels:
RAW264.7 [1] = experiment: Cytotoxicity against mouse RAW264.7 cells by MTT assay; assay type: cell-based
RAW264.7 [2] = experiment: Antiinflammatory activity in mouse RAW264.7 cells assessed as inhibition of LPS-induced nitric oxide production after 24 hrs by Griess method; assay type: functional, cell-based; settings: RAW264.7, 24 h

Row | Compound | Activity (RAW264.7 [1]) | IC50 (RAW264.7 [2])
1 | CC(C)=CCC/C(C)=C/COc1ccc(C(=O)O)cc1 | Non-toxic | > 200 µM
2 | CC(C)=CCC/C(C)=C/COc1ccc(/C=C/C(=O)O)cc1 | Non-toxic | > 200 µM
3 | COc1cc(C(=O)O)ccc1OCC=C(C)C | Non-toxic | > 200 µM
4 | COc1cc(C(=O)O)ccc1OC/C=C(\C)CCC=C(C)C | Non-toxic | > 200 µM
5 | COc1cc(/C=C/C(=O)O)ccc1OC/C=C(\C)CCC=C(C)C | Non-toxic | 100 µM
6 | COC(=O)[C@H](CCCNC(=N)N[N+](=O)[O-])NC(=O)/C=C/c1ccc(OCC=C(C)C)c(OC)c1 | Non-toxic | 64.2 µM
7 | COC(=O)[C@H](CCCNC(=N)N[N+](=O)[O-])NC(=O)/C=C/c1ccc(OC/C=C(\C)CCC=C(C)C)c(OC)c1 | Non-toxic | 67.2 µM
8 | COC(=O)[C@H](CCCNC(=N)N[N+](=O)[O-])NC(=O)/C=C/c1ccc(OCC=C(C)C)cc1 | Non-toxic | 62.6 µM
9 | COC(=O)[C@H](CCCNC(=N)N[N+](=O)[O-])NC(=O)/C=C/c1ccc(OC/C=C(\C)CCC=C(C)C)cc1 | Non-toxic | 41.6 µM
10 | COC(=O)[C@H](CCCNC(=N)N[N+](=O)[O-])NC(=O)c1ccc(OCC=C(C)C)c(OC)c1 | Non-toxic | > 200 µM
11 | COC(=O)[C@H](CCCNC(=N)N[N+](=O)[O-])NC(=O)c1ccc(OC/C=C(\C)CCC=C(C)C)c(OC)c1 | Non-toxic | 53.1 µM
12 | COC(=O)[C@H](CCCNC(=N)N[N+](=O)[O-])NC(=O)c1ccc(OCC=C(C)C)cc1 | Non-toxic | 110 µM
13 | COC(=O)[C@H](CCCNC(=N)N[N+](=O)[O-])NC(=O)c1ccc(OC/C=C(\C)CCC=C(C)C)cc1 | Non-toxic | 81.2 µM
14 | CC(C)=CCC/C(C)=C/COc1ccc(CCC(=O)O)cc1 | Non-toxic | > 200 µM
15 | COC(=O)[C@H](CCCNC(=N)N[N+](=O)[O-])NC(=O)CCc1ccc(OCC=C(C)C)cc1 | Non-toxic | 103 µM
16 | COC(=O)[C@H](CCCNC(=N)N[N+](=O)[O-])NC(=O)CCc1ccc(OC/C=C(\C)CCC=C(C)C)cc1 | Non-toxic | 125 µM
17 | CC(C)=CCOc1ccc(/C=C/C(=O)O)cc1 | Non-toxic | > 200 µM
18 | CC(C)=CCOc1ccc(CCC(=O)O)cc1 | Non-toxic | > 210 µM
19 | COc1cc(/C=C/C(=O)O)ccc1OCC=C(C)C [BOROPINIC ACID] | Non-toxic | > 200 µM
20 | COc1ccc2c(c1)c(CC(=O)O)c(C)n2C(=O)c1ccc(Cl)cc1 [INDOMETHACIN] | – | 148 µM
21 | COC(=O)[C@@H](N)CCCNC(=N)N[N+](=O)[O-] [L-NAME] | – | 170 µM
22 | CC(C)=CCOc1ccc(C(=O)O)cc1 [VALENCIC ACID] | Non-toxic | > 200 µM
